Columns and labels:
[1] = target: T1, SDH complex (Homo sapiens, UniProt O14521+P21912+P31040+Q99643); test: SDH forward/reverse activity (succinate oxidation, fumarate reduction) by stable isotope tracing in cells; type: cell-based
T1 construct: endogenous in cells; host or cells: 143B cells (A5: live cells; A6: permeabilized mitochondria purified from them)
Excerpt: Fumarate reduction can be monitored in cells by the stable isotope tracing of either ^13C4-aspartate or ^13C5^15N2-glutamine. ^13C4-aspartate contributes to the fumarate pool via oxaloacetate and malate and so should lead to the production of ^13C4-succinate upon fumarate reduction (FIG. 2B). ^13C5^15N2-glutamine contributes to the fumarate pool through the reductive arm of the TCA cycle via glutamate, α-ketoglutarate, isocitrate, citrate, oxaloacetate, and malate. A key distinction between the two labeling approaches is that ^13C5^15N2-glutamine enriches the fumarate pool more upon antimycin treatment due to enhanced reductive carboxylation flux, whereas ^13C4-aspartate labels the fumarate pool to equivalent extents in vehicle and antimycin-treated cells (FIG. 2C). Therefore, with stable isotope tracing of ^13C4-aspartate, the level of ^13C4-succinate is a direct measure of fumarate reduction, whereas the stable isotope tracing of ^13C5^15N2-glutamine requires a ratiometric analysis of labeled succinate to labeled fumarate to normalize for differences in the extent of fumarate labeling.
To test if hypoxia triggers electron leakage onto fumarate or a net-reversal of the SDH complex, the ^13C5^15N2-glutamine tracer was utilized, which enables simultaneous quantification of the forward and reverse activities of SDH through the generation of unique isotopologues upon flux through the oxidative arm (α-ketoglutarate to succinate) compared to the reductive arm (α-ketoglutarate—via citrate—to fumarate) of the TCA cycle (FIG. 2E). In this assay, the forward (succinate oxidation) reaction was defined as the ratio of percent labeled ^13C4-fumarate to its precursor ^13C4-succinate (FIG. 2E) and the reverse (fumarate reduction) as that of percent labeled ^13C3-succinate to its precursor ^13C3-fumarate (FIG. 2E). This type of analysis can be performed when the labeling is in the steady-state, which was determined to be after 4-8 hours of incubation with ^13C5^15N2-glutamine (FIG. S2E-F). This ratiometric analysis of the succinate and fumarate isotopologues eliminates potential biases in the assay, such as higher ^13C3-fumarate labeling in antimycin-treated cells caused increased reductive carboxylation flux (FIG. S2E).
Stable isotope tracing in cells: Cells were seeded 24 hours prior to the experiment in 6-well dishes at 70% density. For stable isotope tracing of glutamine, glutamine-free DMEM (ThermoFisher) was supplemented with 2 mM ^13C5^15N2-glutamine (Sigma), 1 mM pyruvate, 5% FBS, 1% P/S, 0.1 mg/mL uridine. For stable isotope tracing of aspartate, DMEM containing 5% FBS, and 1% penicillin and streptomycin, and 0.1 mg/mL uridine (Sigma) was supplemented with the designated amount of 13C4-aspartate (Sigma) and the pH adjusted to 7.4. Uridine was left out of the media for stable isotope tracing experiments measuring nucleotide biosynthesis. Unless otherwise stated, for all experiments, cells were treated for 8 hours and metabolites were isolated as described below. Relevant compounds were added at the start of the incubation periods.

[2] = system: SDH complex; test: SDH activity assay in permeabilized purified mitochondria; type: biochemical, human
Description: SDH activity was examined in permeabilized purified mitochondria. The rate of succinate oxidation was measured by monitoring fumarate production over time after initiating the reaction with succinate. The rate of fumarate reduction was measured in a separate assay by monitoring the rate of succinate production over time after initiating the reaction with fumarate and NADH. […] Moreover, complex I inhibition by piericidin suppressed the fumarate reduction caused by antimycin treatment (FIG. 2I).
Isolation of Mitochondria for Biochemical Assays: 143B cells were scraped and pelleted at 1000×g for 5 minutes. Cell pellets were washed in 1×PBS and pelleted at 1000×g for 5 minutes. For tissue samples, approximately 100 mg of tissue powder was weighed out. Tissue powder or cells were re-suspended in isolation buffer (200 mM sucrose, 10 mM Tris HCl, 1 mM EGTA/Tris, pH 7.4 (adjusted with 1M HEPES)), transferred into an ice-cold glass homogenizer (VWR), and dounced with 15-30 strokes. Homogenates were transferred into tubes and spun at 600×g for 10 minutes at 4° C. Supernatants were moved to a new tube and centrifugation was repeated. Then, supernatants were moved to a new tube and pelleted at 7,000×g for 10 minutes at 4° C. Pellets were washed in isolation buffer and centrifugation was repeated. Pellets were subsequently stored at −80° C. until use.
SDH Activity Assay: Purified mitochondria were re-suspended in buffer (0.22 M Mannitol, 0.075 M Sucrose, 1 mM EDTA, 10 mM HEPES pH 7.4, and one complete Protease inhibitor tablet (Sigma)) to a concentration of 5 mg/mL and underwent 5 freeze-thaw cycles to permeabilize them. 30 μg mitochondria (6 uL) were diluted 1:10 (in 54 uL) of SDH activity assay buffer (27.5 mM KH2PO4 pH 7.4, 1.1 mM CoQ-10 (Sigma), 3.5 g/L BSA). Reactions were supplemented with DMSO, 1 μM antimycin, or 1 μM piericidin and pre-incubated at 37° C. for 10 minutes. […] Samples were centrifuged at 16,000×g for 10 minutes at 4° C. and supernatants were dried down and analyzed by LC-MS for succinate and fumarate.

[3] = system: mitochondrial membrane potential; test: Mitochondrial membrane potential (TMRE dye); type: cell-based, human
Description: Live Cell Imaging: 143B cells were seeded at 50% density in 6-well dishes 24 hours prior to the experiment. Cells were pre-incubated with 500 nM TMRE dye for 30 minutes and then imaging on a Nikon TE2000 inverted microscope was started. Images were taken at 1 minute intervals over the course of an hour in the mCherry channel while the plate was incubated in a chamber maintaining a temperature of 37° C. and 5% CO2.
Flow Cytometry: Cells were seeded 24 hours prior to the experiment at 50% density. On the day of the experiment, the cells were treated for the designated time with inhibitors. 30 minutes prior to the end of the incubation, 500 nM TMRE dye was added to the wells. Following incubation cells were washed, trypsinized, and filtered through a cell strainer prior to sorting. Fluorescence-activated cell sorting was performed on a LSR-II sorter, in which the fluorescence intensity of individual cells was quantified in the PE channel. Data were analyzed using FlowJo software (TreeStar).

[4] = 13C5 15N2-glutamine tracing, 143B cells

T1 sequence (P31040 43-664): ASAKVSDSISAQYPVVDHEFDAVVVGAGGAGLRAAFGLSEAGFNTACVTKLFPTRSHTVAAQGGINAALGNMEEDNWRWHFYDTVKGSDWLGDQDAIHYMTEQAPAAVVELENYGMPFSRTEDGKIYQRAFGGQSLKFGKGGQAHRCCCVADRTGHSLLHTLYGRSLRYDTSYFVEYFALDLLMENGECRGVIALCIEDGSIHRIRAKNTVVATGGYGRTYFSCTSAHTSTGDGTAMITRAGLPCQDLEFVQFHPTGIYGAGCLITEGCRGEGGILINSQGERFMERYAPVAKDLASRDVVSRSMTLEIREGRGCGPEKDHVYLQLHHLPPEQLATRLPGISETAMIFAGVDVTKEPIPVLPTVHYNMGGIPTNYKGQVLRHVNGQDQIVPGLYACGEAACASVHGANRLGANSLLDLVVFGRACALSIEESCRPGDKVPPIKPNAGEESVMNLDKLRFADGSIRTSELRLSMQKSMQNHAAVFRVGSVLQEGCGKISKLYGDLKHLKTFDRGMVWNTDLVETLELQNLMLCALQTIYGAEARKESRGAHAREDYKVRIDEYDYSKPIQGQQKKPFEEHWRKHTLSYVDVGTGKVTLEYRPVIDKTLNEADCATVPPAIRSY
T1 sequence (P21912 29-280): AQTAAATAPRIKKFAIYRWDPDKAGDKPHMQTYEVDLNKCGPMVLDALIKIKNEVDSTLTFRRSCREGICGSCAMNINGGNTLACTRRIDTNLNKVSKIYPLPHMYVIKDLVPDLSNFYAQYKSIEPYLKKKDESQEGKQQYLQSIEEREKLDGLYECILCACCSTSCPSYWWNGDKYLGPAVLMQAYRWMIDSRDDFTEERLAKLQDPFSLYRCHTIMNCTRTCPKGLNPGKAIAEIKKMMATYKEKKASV
T1 sequence (Q99643 30-169): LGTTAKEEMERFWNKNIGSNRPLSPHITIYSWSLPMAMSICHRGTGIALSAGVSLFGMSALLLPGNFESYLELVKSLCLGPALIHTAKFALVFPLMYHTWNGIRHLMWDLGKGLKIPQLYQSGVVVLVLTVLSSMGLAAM
T1 sequence (O14521 57-159): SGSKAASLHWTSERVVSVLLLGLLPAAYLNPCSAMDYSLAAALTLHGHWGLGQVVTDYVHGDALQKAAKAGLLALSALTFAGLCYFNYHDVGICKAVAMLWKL

Substance | fumarate reduction (SDH reverse activity) [1, 4] | succinate oxidation (SDH forward activity) [1, 4] | conversion of fumarate into succinate (13C4-succinate production, 13C4-aspartate tracing) ([1]; WT 143B cells, 500 nM antimycin) | ratio of isotopologues: fumarate reduction over succinate oxidation ([1]; antimycin treatment (also hypoxia exposure)) | fumarate reduction and succinate oxidation reactions ([1]; cells lacking SDHA or SDHB) | rate of succinate oxidation versus fumarate reduction (vehicle: succinate oxidation higher) ([2]; permeabilized purified mitochondria, 1 μM antimycin) | mitochondrial membrane potential (ΔΨMito) ([3]; SDHB-null cells versus wild-type cells, 30 minutes of antimycin treatment) | mitochondrial membrane potential (ΔΨMito) ([3]; wild-type cells, time course after antimycin) | terminal electron acceptor use in the mammalian ETC ([1]; rhodoquinone generated by RquA expression in cells) | fumarate reduction (succinate production over time) ([2]; purified permeabilized mitochondria from WT and RquA-expressing cells, fumarate and NADH, absence of antimycin)
antimycin | increased | decreased | robustly stimulated | approximately 4 fold | not altered | the opposite was the case | substantially more depolarized | initial reduction in the ΔΨ^Mito, which was restored to pre-treatment levels | – | –
rhodoquinone | – | – | – | – | – | – | – | – | promotes the use of fumarate as a terminal electron acceptor | sufficient to drive fumarate reduction
